Experimental data from US10259810B2, “N-sulfonylated pyrazolo[3,4-b]pyridin-6-carboxamides and method of use” (AbbVie S.à.r.l., priority 2015, dated 2019).

Key:
Type in all cases: cell-based
CFTR ΔF508 = biological target: T1, CFTR ΔF508 (Homo sapiens, UniProt P13569, DEL508-508); assay: Chronic TECC assay, primary bronchial epithelial cells of CF patients homozygous for CFTR ΔF508 (corrector, co-corrector and potentiator); conditions: chronic TECC, AUC = full area under the curve upon forskolin stimulation; for % Activity at 3 μM (AUC**): test compound at 3 μM; for % Activity at 1 μM (AUC**): test compound at 1 μM
T1 construct: bronchial epithelial cells isolated from CF patients homozygous for the CFTR ΔF508 mutation; McGill University; Asterand; University of North Carolina hAEC-CF; host or cells: primary human bronchial epithelial cells from CF patients homozygous for ΔF508, differentiated at air-liquid interface
How it was run: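 Primary bronchial epithelial cells from ΔF508-homozygous CF patients on collagen IV-coated Transwells were chronically treated with test compound plus corrector and potentiator, which were re-added before recording. Ieq was derived from PD and Rt in NaCl-Ringer, pH 7.4, at 37° C, with apical amiloride and bilateral forskolin, recorded every 2 min over 20 min. Ieq increase was normalized to controls, and EC50 was taken from per-well concentrations.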

ΔF508-CFTR [1] = biological target: T2, ΔF508-CFTR (Homo sapiens, UniProt P13569, DEL508-508); assay: CFTR cell surface levels using HRP-tagged ΔF508-CFTR expressing CFBE cells, intrinsic corrector capacity; design: % Activation: concentration or dose not given beside the values; conditions: HRP-tagged ΔF508-CFTR expressing CFBE41o- cells, compound alone (intrinsic corrector capacity), 20 hours at 33° C.; for EC50: read-out: EC50
T2 construct: host or cells: CFBE41o-, doxycycline-inducible
How it was run: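 Surface ΔF508-CFTR was measured as HRP chemiluminescence from an extracellular-loop-4 tag, expressed as percent activity between DMSO and a […] corrector control.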

ΔF508-CFTR [2] = biological target: T2, ΔF508-CFTR; assay: CFTR cell surface levels using HRP-tagged ΔF508-CFTR expressing CFBE cells, in the presence of a co-corrector; conditions: HRP-tagged ΔF508-CFTR CFBE cells, in the presence of 3 μM co-corrector; for EC50: read-out: EC50
How it was run: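 Chemiluminescent read-out of surface HRP (15 min, dark) after PBS washes. Activity is normalized as 100×(sample−DMSO)/(3 μM co-corrector alone−DMSO).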

T2 sequence (P13569 with tags, fused parts or gaps DEL508-508): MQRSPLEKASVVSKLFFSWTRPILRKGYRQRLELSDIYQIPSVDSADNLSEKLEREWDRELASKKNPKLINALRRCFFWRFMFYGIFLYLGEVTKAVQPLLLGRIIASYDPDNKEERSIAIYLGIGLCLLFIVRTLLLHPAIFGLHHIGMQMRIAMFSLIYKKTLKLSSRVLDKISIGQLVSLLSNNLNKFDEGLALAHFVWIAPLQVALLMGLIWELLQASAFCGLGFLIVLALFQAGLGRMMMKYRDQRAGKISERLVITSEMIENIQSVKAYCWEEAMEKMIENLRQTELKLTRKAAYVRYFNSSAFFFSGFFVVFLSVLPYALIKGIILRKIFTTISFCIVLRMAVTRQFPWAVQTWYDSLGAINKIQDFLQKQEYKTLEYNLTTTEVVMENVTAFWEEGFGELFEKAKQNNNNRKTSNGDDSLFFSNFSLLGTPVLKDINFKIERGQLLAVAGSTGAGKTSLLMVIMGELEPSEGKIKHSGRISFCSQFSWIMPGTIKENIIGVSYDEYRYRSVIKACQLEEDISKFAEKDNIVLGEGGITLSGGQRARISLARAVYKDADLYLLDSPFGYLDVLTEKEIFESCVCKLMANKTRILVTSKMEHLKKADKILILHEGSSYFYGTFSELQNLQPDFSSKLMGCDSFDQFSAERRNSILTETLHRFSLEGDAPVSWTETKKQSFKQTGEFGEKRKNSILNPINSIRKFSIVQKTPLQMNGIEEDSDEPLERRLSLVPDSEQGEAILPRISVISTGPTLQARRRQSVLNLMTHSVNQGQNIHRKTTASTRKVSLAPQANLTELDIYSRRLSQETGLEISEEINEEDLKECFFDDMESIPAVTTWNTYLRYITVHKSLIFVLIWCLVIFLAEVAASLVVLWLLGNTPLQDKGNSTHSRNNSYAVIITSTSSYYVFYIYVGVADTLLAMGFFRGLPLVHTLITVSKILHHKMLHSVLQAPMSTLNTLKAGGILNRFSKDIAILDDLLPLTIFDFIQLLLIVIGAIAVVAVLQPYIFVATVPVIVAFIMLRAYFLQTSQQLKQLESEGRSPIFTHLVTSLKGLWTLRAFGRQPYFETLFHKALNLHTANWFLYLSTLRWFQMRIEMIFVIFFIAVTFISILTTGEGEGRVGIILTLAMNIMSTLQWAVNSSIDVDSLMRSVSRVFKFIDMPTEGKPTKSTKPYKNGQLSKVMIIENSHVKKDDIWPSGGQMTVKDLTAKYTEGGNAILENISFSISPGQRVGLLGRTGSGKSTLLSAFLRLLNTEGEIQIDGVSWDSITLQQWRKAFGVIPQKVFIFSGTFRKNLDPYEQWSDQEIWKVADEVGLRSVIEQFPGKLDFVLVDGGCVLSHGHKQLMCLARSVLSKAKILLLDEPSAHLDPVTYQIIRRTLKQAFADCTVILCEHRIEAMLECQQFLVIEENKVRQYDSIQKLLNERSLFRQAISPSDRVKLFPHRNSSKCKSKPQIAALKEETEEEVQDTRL
T1 sequence (P13569 with tags, fused parts or gaps DEL508-508): as above

Structure (SMILES): O=C(NS(=O)(=O)N1CCC1)c1cc(N2CCC(N3CCOCC3)CC2)c2c(C3CCC3)nn(-c3ccc(F)cc3)c2n1 [Compound 576, N-(azetidine-1-sulfonyl)-3-cyclobutyl-1-(4-fluorophenyl)-4-[4-(morpholin-4-yl)piperidin-1-yl]-1H-pyrazolo[3,4-b]pyridine-6-carboxamide]
- % Activity at 3 μM (AUC**) (CFTR ΔF508): 225.798%
- % Activation (ΔF508-CFTR [1]): 257.15%
- EC50 (ΔF508-CFTR [1]): 139 nM
- % Activation (ΔF508-CFTR [2]): 443.5%
- EC50 (ΔF508-CFTR [2]): 54.7 nM

Structure (SMILES): O=C(NS(=O)(=O)NC1CCOCC1)c1cc(N2CCC(N3CCOCC3)CC2)c2c(C3CCC3)nn(-c3ccc(F)cc3)c2n1 [Compound 578, 3-cyclobutyl-1-(4-fluorophenyl)-4-[4-(morpholin-4-yl)piperidin-1-yl]-N-[(oxan-4-yl)sulfamoyl]-1H-pyrazolo[3,4-b]pyridine-6-carboxamide]
- % Activity at 1 μM (AUC**) (CFTR ΔF508): 936.6667%
- % Activation (ΔF508-CFTR [1]): 309.25%
- EC50 (ΔF508-CFTR [1]): 152 nM
- % Activation (ΔF508-CFTR [2]): 462.3%
- EC50 (ΔF508-CFTR [2]): 108 nM

Structure (SMILES): CN(C)S(=O)(=O)NC(=O)c1cc(N2CCC(N3CCN(C4CC4)CC3)CC2)c2c(C3CCC3)nn(-c3ccc(F)cc3)c2n1 [Compound 583, 3-cyclobutyl-4-[4-(4-cyclopropylpiperazin-1-yl)piperidin-1-yl]-N-(dimethylsulfamoyl)-1-(4-fluorophenyl)-1H-pyrazolo[3,4-b]pyridine-6-carboxamide]
- EC50 (CFTR ΔF508; read-out: EC50 (nM) (AUC**)): 51.3 nM
- % Activity at 1 μM (AUC**) (CFTR ΔF508): 613.3333%
- % Activation (ΔF508-CFTR [1]): 269.7%
- EC50 (ΔF508-CFTR [1]): 178 nM
- % Activation (ΔF508-CFTR [2]): 480.15%
- EC50 (ΔF508-CFTR [2]): 47.6 nM

Structure (SMILES): CN(C)S(=O)(=O)NC(=O)c1cc(N2CCC(CN3CCCC3)CC2)c2c(C3CCC3)nn(-c3ccc(F)cc3)c2n1 [Compound 589, 3-cyclobutyl-N-(dimethylsulfamoyl)-1-(4-fluorophenyl)-4-{4-[(pyrrolidin-1-yl)methyl]piperidin-1-yl}-1H-pyrazolo[3,4-b]pyridine-6-carboxamide]
- % Activity at 1 μM (AUC**) (CFTR ΔF508): 236.6667%
- % Activation (ΔF508-CFTR [1]): 193.6%
- EC50 (ΔF508-CFTR [1]): 200 nM
- % Activation (ΔF508-CFTR [2]): 422.95%
- EC50 (ΔF508-CFTR [2]): 148 nM

Structure (SMILES): CCOC(=O)N1CCN(C2CCN(c3cc(C(=O)NS(=O)(=O)N(C)C)nc4c3c(C3CCC3)nn4-c3ccc(F)cc3)CC2)CC1 [Compound 590, ethyl 4-(1-{3-cyclobutyl-6-[(dimethylsulfamoyl)carbamoyl]-1-(4-fluorophenyl)-1H-pyrazolo[3,4-b]pyridin-4-yl}piperidin-4-yl)piperazine-1-carboxylate]
- % Activity at 3 μM (AUC**) (CFTR ΔF508): 220.4586%
- % Activation (ΔF508-CFTR [1]): 290.3%
- EC50 (ΔF508-CFTR [1]): 86.7 nM
- % Activation (ΔF508-CFTR [2]): 487.9%
- EC50 (ΔF508-CFTR [2]): 31.4 nM

Structure (SMILES): CN(C)S(=O)(=O)NC(=O)c1cc(C2CCN(C3CCC(F)(F)CC3)CC2)c2c(C3CCC3)nn(-c3ccc(F)cc3)c2n1 [Compound 594, 3-cyclobutyl-4-[1-(4,4-difluorocyclohexyl)piperidin-4-yl]-N-(dimethylsulfamoyl)-1-(4-fluorophenyl)-1H-pyrazolo[3,4-b]pyridine-6-carboxamide]
- % Activity at 3 μM (AUC**) (CFTR ΔF508): 320%
- % Activation (ΔF508-CFTR [1]): 135.7%
- EC50 (ΔF508-CFTR [1]): 519 nM
- % Activation (ΔF508-CFTR [2]): 308.05%
- EC50 (ΔF508-CFTR [2]): 181 nM

Structure (SMILES): CC(C)Oc1nn(C2CCCCC2)c2nc(C(=O)NS(C)(=O)=O)cc(-c3ccc(CN4CCN(C5CC5)CC4)cc3)c12 [Compound 597, 1-cyclohexyl-4-{4-[(4-cyclopropylpiperazin-1-yl)methyl]phenyl}-N-(methanesulfonyl)-3-[(propan-2-yl)oxy]-1H-pyrazolo[3,4-b]pyridine-6-carboxamide]
- % Activity at 1 μM (AUC**) (CFTR ΔF508): 263.3333%
- % Activation (ΔF508-CFTR [1]): 214.3%
- EC50 (ΔF508-CFTR [1]): 130 nM
- % Activation (ΔF508-CFTR [2]): 433.93%
- EC50 (ΔF508-CFTR [2]): 111 nM

Structure (SMILES): CS(=O)(=O)NC(=O)c1cc(C2CCN(C3CCOCC3)CC2)c2c(C3CCC3)nn(-c3ccc(F)cc3)c2n1 [Compound 599, 3-cyclobutyl-1-(4-fluorophenyl)-N-(methanesulfonyl)-4-[1-(oxan-4-yl)piperidin-4-yl]-1H-pyrazolo[3,4-b]pyridine-6-carboxamide]
- % Activity at 1 μM (AUC**) (CFTR ΔF508): 116.6667%
- % Activation (ΔF508-CFTR [1]): 88.94%
- EC50 (ΔF508-CFTR [1]): 331 nM
- % Activation (ΔF508-CFTR [2]): 285.2%
- EC50 (ΔF508-CFTR [2]): 270 nM

Structure (SMILES): CN(C)S(=O)(=O)NC(=O)c1cc(N2CCC(N3CCC(O)CC3)CC2)c2c(C3CCC3)nn(-c3ccc(F)cc3)c2n1 [Compound 605, 3-cyclobutyl-N-(dimethylsulfamoyl)-1-(4-fluorophenyl)-4-(4-hydroxy[1,4'-bipiperidin]-1'-yl)-1H-pyrazolo[3,4-b]pyridine-6-carboxamide]
- % Activity at 1 μM (AUC**) (CFTR ΔF508): 726.6667%
- % Activation (ΔF508-CFTR [1]): 207.5%
- EC50 (ΔF508-CFTR [1]): 317 nM
- % Activation (ΔF508-CFTR [2]): 395.8%
- EC50 (ΔF508-CFTR [2]): 723 nM

Structure (SMILES): COCC1CCN(c2cc(C(=O)NS(=O)(=O)N3CCC(N4CCOCC4)C3)nc3c2c(C2CCC2)nn3-c2ccc(F)cc2)CC1 (stereo not shown) [Compound 608, 3-cyclobutyl-1-(4-fluorophenyl)-4-[4-(methoxymethyl)piperidin-1-yl]-N-[3-(morpholin-4-yl)pyrrolidine-1-sulfonyl]-1H-pyrazolo[3,4-b]pyridine-6-carboxamide]
- % Activity at 3 μM (AUC**) (CFTR ΔF508): 442.1916%
- % Activation (ΔF508-CFTR [1]): 194.67%
- EC50 (ΔF508-CFTR [1]): 104 nM
- % Activation (ΔF508-CFTR [2]): 365.7%
- EC50 (ΔF508-CFTR [2]): 54.8 nM

Structure (SMILES): COCC1CCN(c2cc(C(=O)NS(=O)(=O)N3CCN(C4CC4)CC3)nc3c2c(C2CCC2)nn3-c2ccc(F)cc2)CC1 [Compound 609, 3-cyclobutyl-N-(4-cyclopropylpiperazine-1-sulfonyl)-1-(4-fluorophenyl)-4-[4-(methoxymethyl)piperidin-1-yl]-1H-pyrazolo[3,4-b]pyridine-6-carboxamide]
- % Activity at 3 μM (AUC**) (CFTR ΔF508): 306.6667%
- % Activation (ΔF508-CFTR [1]): 202.53%
- EC50 (ΔF508-CFTR [1]): 249 nM
- % Activation (ΔF508-CFTR [2]): 414.2%
- EC50 (ΔF508-CFTR [2]): 109 nM

Structure (SMILES): CC(C)N1CCC(c2cc(C(=O)NS(C)(=O)=O)nc3c2c(C2CCC2)nn3-c2ccc(F)cc2)CC1 [Compound 611, 3-cyclobutyl-1-(4-fluorophenyl)-N-(methanesulfonyl)-4-[1-(propan-2-yl)piperidin-4-yl]-1H-pyrazolo[3,4-b]pyridine-6-carboxamide]
- % Activity at 3 μM (AUC**) (CFTR ΔF508): 176.7495%
- % Activation (ΔF508-CFTR [1]): 77.39%
- EC50 (ΔF508-CFTR [1]): 3330 nM
- % Activation (ΔF508-CFTR [2]): 236.7%
- EC50 (ΔF508-CFTR [2]): 2620 nM

Structure (SMILES): CN(C)S(=O)(=O)NC(=O)c1cc(N2CCC3(CC2)CCN(C2COC2)CC3)c2c(C3CCC3)nn(-c3ccc(F)cc3)c2n1 [Compound 614, 3-cyclobutyl-N-(dimethylsulfamoyl)-1-(4-fluorophenyl)-4-[9-(oxetan-3-yl)-3,9-diazaspiro[5.5]undecan-3-yl]-1H-pyrazolo[3,4-b]pyridine-6-carboxamide]
- % Activity at 3 μM (AUC**) (CFTR ΔF508): 407.7118%
- % Activation (ΔF508-CFTR [1]): 172%
- EC50 (ΔF508-CFTR [1]): 211 nM
- % Activation (ΔF508-CFTR [2]): 381.35%
- EC50 (ΔF508-CFTR [2]): 171 nM

Structure (SMILES): CC(C)Oc1nccc(-n2nc(C3CCC3)c3c(N4CCC(N5CCOCC5)CC4)cc(C(=O)NS(=O)(=O)N(C)C)nc32)n1 [Compound 621, 3-cyclobutyl-N-(dimethylsulfamoyl)-4-[4-(morpholin-4-yl)piperidin-1-yl]-1-{2-[(propan-2-yl)oxy]pyrimidin-4-yl}-1H-pyrazolo[3,4-b]pyridine-6-carboxamide]
- % Activity at 3 μM (AUC**) (CFTR ΔF508): 256.6667%
- % Activation (ΔF508-CFTR [1]): 160.45%
- EC50 (ΔF508-CFTR [1]): 173 nM
- % Activation (ΔF508-CFTR [2]): 348.55%
- EC50 (ΔF508-CFTR [2]): 77 nM

Structure (SMILES): CN(C)S(=O)(=O)NC(=O)c1cc(N2CCC(N3CCOCC3)CC2)c2c(C3CCC3)nn(-c3ccc4c(c3)OC(F)(F)O4)c2n1 [Compound 623, 3-cyclobutyl-1-(2,2-difluoro-2H-1,3-benzodioxol-5-yl)-N-(dimethylsulfamoyl)-4-[4-(morpholin-4-yl)piperidin-1-yl]-1H-pyrazolo[3,4-b]pyridine-6-carboxamide]
- % Activity at 3 μM (AUC**) (CFTR ΔF508): 433.3333%
- % Activation (ΔF508-CFTR [1]): 238.53%
- EC50 (ΔF508-CFTR [1]): 113 nM
- % Activation (ΔF508-CFTR [2]): 424.77%
- EC50 (ΔF508-CFTR [2]): 55.6 nM
